Source: patent publication US20260022142A1, “MACROCYCLIC IMMUNOMODULATORS” (Bristol-Myers Squibb Company, priority 2022, published 2026)
Bridge positions count the residues as written; N and C are the ends. Square brackets hold non-standard residues; d marks the D form. Peptide text beside a SMILES is read from it. * marks the point of attachment. ξ: configuration not given here. Bip = N[C@@H](Cc1ccc(-c2ccccc2)cc1)C(=O)O; Tyr(3-F) = N[C@@H](Cc1ccc(O)c(F)c1)C(=O)O; Phe(3-Me) = Cc1cccc(C[C@H](N)C(=O)O)c1; Val(3-OH) = CC(C)(O)[C@H](N)C(=O)O; Ala(cPr) = N[C@@H](CC1CC1)C(=O)O; 4Pal = N[C@@H](Cc1ccncc1)C(=O)O; Cha = N[C@@H](CC1CCCCC1)C(=O)O; Cit = NC(=O)NCCC[C@H](N)C(=O)O; aThr = C[C@H](O)[C@H](N)C(=O)O; Thr(3ξ) = CC(O)[C@H](N)C(=O)O; Carboxymethyl = O=C(O)C*; Orn = NCCC[C@H](N)C(=O)O; Aun = NCCCCCCCCCCC(=O)O; Dab = NCC[C@H](N)C(=O)O; Dap = NC[C@H](N)C(=O)O; AEEA = NCCOCCOCC(=O)O; Ac3c = NC1(C(=O)O)CC1; Propargyl = C#CC*

Biological target: T1, PD-1/PD-L1 interaction (PE-labeled human PD-L1-Ig binding to Jurkat cell line over-expressing human PD-1) (Homo sapiens, UniProt Q15116)
T1 construct: expressed in transfected cells; host or cells: Jurkat
T1 sequence (Q15116 25-288): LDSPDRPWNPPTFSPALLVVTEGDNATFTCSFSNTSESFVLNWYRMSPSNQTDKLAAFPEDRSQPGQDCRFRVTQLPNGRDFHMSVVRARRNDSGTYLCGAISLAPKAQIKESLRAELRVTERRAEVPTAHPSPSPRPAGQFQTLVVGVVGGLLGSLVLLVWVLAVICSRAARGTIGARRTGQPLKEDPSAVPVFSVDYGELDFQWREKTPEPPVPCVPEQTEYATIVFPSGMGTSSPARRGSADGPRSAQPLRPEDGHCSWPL
Assay: Jurkat-PD-1 Cell Binding High-Content Screening Assay (CBA)
Assay type: cell-based
Conditions: Jurkat cell line over-expressing human PD-1; PE-labeled PD-L1-Ig 20 nM final; read-out: Jurkat hPD1-PDL1 IC50
Method in brief: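 Jurkat-hPD-1 cells, DMEM/10% FCS; cpd 2 h 37° C; PE-PD-L1-Ig 20 nM final, 1 h; 4% PFA fix + Hoechst 33342, 3× dPBS wash; high-content imaging read-out.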

Row | Structure (SMILES) | IC50 [nM]
1 | Cc1cccc(C[C@@H]2NC(=O)[C@H](CC(=O)O)NC(=O)[C@H](Cc3ccc(OCC(=O)O)cc3)NC(=O)[C@H](CN)NC(=O)CSC[C@@H](C(=O)N[C@@H](CCN)C(=O)NCCCCCCCCCCC(=O)O)NC(=O)[C@H](Cc3ccncc3)NC(=O)[C@H](C(C)C)NC(=O)[C@H](CC(C)C)NC(=O)[C@H](CCN)NC(=O)[C@@H](CC(C)C)NC(=O)[C@H](CCCN)NC(=O)[C@H](Cc3ccc(O)cc3)NC(=O)[C@H](Cc3ccc(-c4ccccc4)cc3)NC(=O)[C@H](C(C)C)NC2=O)c1 [Compound 2767] ({CH2CO}-[Dap]Y(Carboxymethyl)D[Phe(3-Me)]V[Bip]Y[Orn][dL][Dab]LV[4Pal]C[Dab][Aun]-OH; thioether N-14) | 42.7
2 | C#CCOc1ccc(C[C@@H]2NC(=O)[C@H](C(C)C)NC(=O)[C@H](CC3CCCCC3)NC(=O)[C@H](CCN)NC(=O)[C@@H](CC(C)C)NC(=O)[C@H](CCCN)NC(=O)[C@H](Cc3ccc(OCC(=O)O)cc3)NC(=O)[C@H](Cc3ccc(-c4ccccc4)cc3)NC(=O)[C@H](Cc3ccc(OCC(=O)O)cc3)NC(=O)[C@H](Cc3cccc(C)c3)NC(=O)[C@H](CC(=O)O)NC(=O)[C@H](Cc3ccncc3)NC(=O)[C@H](Cc3ccc(OCC(=O)O)cc3)NC(=O)CSC[C@@H](C(=O)N[C@@H](CCN)C(=O)NCCCCCCCCCCC(=O)O)NC2=O)cc1 [Compound 1249] ({CH2CO}-Y(Carboxymethyl)[4Pal]D[Phe(3-Me)]Y(Carboxymethyl)[Bip]Y(Carboxymethyl)[Orn][dL][Dab][Cha]VY(Propargyl)C[Dab][Aun]-OH; thioether N-14) | 81.7
3 | Cc1cccc(C[C@@H]2NC(=O)[C@H](CC(=O)O)NC(=O)[C@H](Cc3ccc(O)cc3)NC(=O)[C@H](Cc3ccncc3)NC(=O)CSC[C@@H](C(=O)N[C@@H](CCN)C(=O)NCCCCCCCCCCC(=O)O)NC(=O)[C@H](CCCN)NC(=O)[C@H](C(C)C)NC(=O)[C@H](CC3CCCCC3)NC(=O)[C@H](CCN)NC(=O)[C@@H](CC(C)C)NC(=O)[C@H](CCCN)NC(=O)[C@H](Cc3ccc(O)cc3)NC(=O)[C@H](Cc3ccc(-c4ccccc4)cc3)NC(=O)[C@H](C(C)C)NC2=O)c1 [Compound 2708] ({CH2CO}-[4Pal]YD[Phe(3-Me)]V[Bip]Y[Orn][dL][Dab][Cha]V[Orn]C[Dab][Aun]-OH; thioether N-14) | 62.8
4 | CC(C)C[C@H]1NC(=O)[C@H](CCCN)NC(=O)[C@H](Cc2ccc(OCC(=O)O)cc2)NC(=O)[C@H](Cc2ccc(-c3ccccc3)cc2)NC(=O)[C@H](Cc2ccc(O)cc2)NC(=O)[C@H](Cc2ccc(O)c(F)c2)NC(=O)[C@H](CC(=O)O)NC(=O)[C@H](Cc2ccc(OCC(=O)O)cc2)NC(=O)[C@H](CCCNC(=N)N)NC(=O)CSC[C@@H](C(=O)N[C@@H](CCN)C(=O)NCCCCCCCCCCC(=O)O)NC(=O)[C@H]([C@@H](C)O)NC(=O)[C@H](C(C)C)NC(=O)[C@H](CC2CCCCC2)NC(=O)[C@H](CCN)NC1=O [Compound 2105] ({CH2CO}-RY(Carboxymethyl)D[Tyr(3-F)]Y[Bip]Y(Carboxymethyl)[Orn][dL][Dab][Cha]VTC[Dab][Aun]-OH; thioether N-14) | 113
5 | Cc1cccc(C[C@@H]2NC(=O)[C@H](CC(=O)O)NC(=O)[C@H](Cc3ccc(OCC(=O)O)cc3)NC(=O)[C@H](CCCN)NC(=O)CSC[C@@H](C(=O)N[C@@H](CCN)C(=O)NCCCCCCCCCCC(=O)O)NC(=O)[C@H](CO)NC(=O)[C@H](C(C)(C)O)NC(=O)[C@H](CC3CCCCC3)NC(=O)[C@H](CCN)NC(=O)[C@@H](CC(C)C)NC(=O)[C@H](CCCN)NC(=O)[C@H](Cc3ccc(OCC(=O)O)cc3)NC(=O)[C@H](Cc3ccc(-c4ccccc4)cc3)NC(=O)[C@H](Cc3ccc(OCC(=O)O)cc3)NC2=O)c1 [Compound 2212] ({CH2CO}-[Orn]Y(Carboxymethyl)D[Phe(3-Me)]Y(Carboxymethyl)[Bip]Y(Carboxymethyl)[Orn][dL][Dab][Cha][Val(3-OH)]SC[Dab][Aun]-OH; thioether N-14) | 10

More lines, now with the values ahead:

Row | IC50 [nM] | Structure (SMILES)
6 | 16.4 | Cc1cccc(C[C@@H]2NC(=O)[C@H](CC(=O)O)NC(=O)[C@H](Cc3ccc(OCC(=O)O)cc3)NC(=O)[C@H](CN)NC(=O)CSC[C@@H](C(=O)N[C@@H](CCN)C(=O)NCCOCCOCC(=O)NCCCCCCCCCCC(=O)O)NC(=O)[C@H](CN)NC(=O)[C@H](C(C)C)NC(=O)[C@H](CC3CCCCC3)NC(=O)[C@H](CCN)NC(=O)[C@@H](CC(C)C)NC(=O)[C@H](CCCN)NC(=O)[C@H](CCCNC(N)=O)NC(=O)[C@H](Cc3ccc(-c4ccccc4)cc3)NC(=O)[C@H](C(C)C)NC2=O)c1 [Compound 2633] ({CH2CO}-[Dap]Y(Carboxymethyl)D[Phe(3-Me)]V[Bip][Cit][Orn][dL][Dab][Cha]V[Dap]C[Dab][AEEA][Aun]-OH; thioether N-14)
7 | 151 | Cc1cccc(C[C@@H]2NC(=O)[C@H](CC(=O)O)NC(=O)[C@H](Cc3ccc(OCC(=O)O)cc3)NC(=O)[C@H](CN)NC(=O)CSC[C@@H](C(=O)N[C@@H](CCN)C(=O)NCCCCCCCCCCC(=O)O)NC(=O)[C@H]([C@H](C)O)NC(=O)[C@H](C(C)O)NC(=O)[C@H](CC3CCCCC3)NC(=O)[C@H](CCN)NC(=O)[C@@H](CC(C)C)NC(=O)[C@H](CCCN)NC(=O)[C@H](Cc3ccc(O)cc3)NC(=O)[C@H](Cc3ccc(-c4ccccc4)cc3)NC(=O)[C@H](Cc3ccc(OCC(=O)O)cc3)NC2=O)c1 (stereo partly drawn) [Compound 3595] ({CH2CO}-[Dap]Y(Carboxymethyl)D[Phe(3-Me)]Y(Carboxymethyl)[Bip]Y[Orn][dL][Dab][Cha][Thr(3ξ)][aThr]C[Dab][Aun]-OH; thioether N-14)
8 | 14.3 | Cc1cccc(C[C@@H]2NC(=O)[C@H](CC(=O)O)NC(=O)[C@H](Cc3ccc(OCC(=O)O)cc3)NC(=O)[C@H](CCCNC(=N)N)NC(=O)CSC[C@@H](C(=O)N[C@@H](CCN)C(=O)NCCCCCCCCCCC(=O)O)NC(=O)[C@H]([C@@H](C)O)NC(=O)[C@H](C(C)C)NC(=O)[C@H](CC3CC3)NC(=O)[C@H](CCN)NC(=O)[C@@H](CC(C)C)NC(=O)[C@H](CCCN)NC(=O)[C@H](Cc3ccc(OCC(=O)O)cc3)NC(=O)[C@H](Cc3ccc(-c4ccccc4)cc3)NC(=O)[C@H](Cc3ccc(OCC(=O)O)cc3)NC2=O)c1 [Compound 2169] ({CH2CO}-RY(Carboxymethyl)D[Phe(3-Me)]Y(Carboxymethyl)[Bip]Y(Carboxymethyl)[Orn][dL][Dab][Ala(cPr)]VTC[Dab][Aun]-OH; thioether N-14)
9 | 10.3 | CC(C)C[C@H]1NC(=O)[C@H](CCCN)NC(=O)[C@H](C(C)C)NC(=O)[C@H](Cc2ccc(-c3ccccc3)cc2)NC(=O)[C@H](C(C)C)NC(=O)[C@H](Cc2c[nH]c3ccccc23)NC(=O)[C@H](CC(=O)O)NC(=O)[C@H](Cc2ccc(OCC(=O)O)cc2)NC(=O)[C@H](Cc2ccc(OCC(=O)O)cc2)NC(=O)CSC[C@@H](C(=O)NCCOCCOCC(=O)N[C@@H](CCCCN)C(=O)NCCCCCCCCCCC(=O)O)NC(=O)[C@H](CN)NC(=O)[C@H](C(C)C)NC(=O)[C@H](CC2CCCCC2)NC(=O)[C@H](CCN)NC1=O [Compound 2600] ({CH2CO}-Y(Carboxymethyl)Y(Carboxymethyl)DWV[Bip]V[Orn][dL][Dab][Cha]V[Dap]C[AEEA]K[Aun]-OH; thioether N-14)
10 | 8.8 | Cc1cccc(C[C@@H]2NC(=O)[C@H](CC(=O)O)NC(=O)[C@H](Cc3ccc(OCC(=O)O)cc3)NC(=O)[C@H](CN)NC(=O)CSC[C@@H](C(=O)N[C@@H](CCN)C(=O)NCCOCCOCC(=O)NCCCCCCCCCCC(=O)O)NC(=O)[C@H](C(C)O)NC(=O)[C@H](C(C)C)NC(=O)[C@H](CC3CCCCC3)NC(=O)[C@H](CCN)NC(=O)[C@@H](CC(C)C)NC(=O)[C@H](CCCN)NC(=O)[C@H](Cc3ccc(O)cc3)NC(=O)[C@H](Cc3ccc(-c4ccccc4)cc3)NC(=O)[C@H](C(C)C)NC2=O)c1 (stereo partly drawn) [Compound 2587] ({CH2CO}-[Dap]Y(Carboxymethyl)D[Phe(3-Me)]V[Bip]Y[Orn][dL][Dab][Cha]V[Thr(3ξ)]C[Dab][AEEA][Aun]-OH; thioether N-14)
11 | 10.9 | CC(C)C[C@H]1NC(=O)[C@H](CCCN)NC(=O)[C@H](C(C)C)NC(=O)[C@H](Cc2ccc(-c3ccccc3)cc2)NC(=O)[C@H](C(C)C)NC(=O)[C@H](Cc2c[nH]c3ccccc23)NC(=O)[C@H](CC(=O)O)NC(=O)[C@H](Cc2ccc(OCC(=O)O)cc2)NC(=O)[C@H](CCCNC(=N)N)NC(=O)CSC[C@@H](C(=O)N[C@@H](CCCN)C(=O)NCCCCCCCCCCC(=O)O)NC(=O)[C@H](CCCN)NC(=O)[C@H](C(C)C)NC(=O)[C@H](CC2CCCCC2)NC(=O)[C@H](CCN)NC1=O [Compound 3346] ({CH2CO}-RY(Carboxymethyl)DWV[Bip]V[Orn][dL][Dab][Cha]V[Orn]C[Orn][Aun]-OH; thioether N-14)
12 | 19.8 | Cc1cccc(C[C@@H]2NC(=O)[C@H](CC(=O)O)NC(=O)[C@H](Cc3ccc(OCC(=O)O)cc3)NC(=O)[C@H](CN)NC(=O)CSC[C@@H](C(=O)NC3(C(=O)N[C@@H](CCCN)C(=O)N[C@H](CO)C(=O)NCCCCCCCCCCC(=O)O)CC3)NC(=O)[C@H]([C@@H](C)O)NC(=O)[C@H](C(C)C)NC(=O)[C@H](CC3CCCCC3)NC(=O)[C@H](CCN)NC(=O)[C@@H](CC(C)C)NC(=O)[C@H](CCCN)NC(=O)[C@H](CCCNC(N)=O)NC(=O)[C@H](Cc3ccc(-c4ccccc4)cc3)NC(=O)[C@H](C(C)C)NC2=O)c1 [Compound 2015] ({CH2CO}-[Dap]Y(Carboxymethyl)D[Phe(3-Me)]V[Bip][Cit][Orn][dL][Dab][Cha]VTC[Ac3c][Orn][dS][Aun]-OH; thioether N-14)
13 | 16.7 | CC(C)C[C@H]1NC(=O)[C@H](CCCN)NC(=O)[C@H](CCCNC(N)=O)NC(=O)[C@H](Cc2ccc(-c3ccccc3)cc2)NC(=O)[C@H](C(C)C)NC(=O)[C@H](Cc2c[nH]c3ccccc23)NC(=O)[C@H](CC(=O)O)NC(=O)[C@H](Cc2ccc(OCC(=O)O)cc2)NC(=O)[C@H](CN)NC(=O)CSC[C@@H](C(=O)NCCOCCOCC(=O)N[C@@H](CCN)C(=O)NCCCCCCCCCCC(=O)O)NC(=O)[C@H](CCCCN)NC(=O)[C@H](C(C)C)NC(=O)[C@H](CC2CCCCC2)NC(=O)[C@H](CCN)NC1=O [Compound 2625] ({CH2CO}-[Dap]Y(Carboxymethyl)DWV[Bip][Cit][Orn][dL][Dab][Cha]VKC[AEEA][Dab][Aun]-OH; thioether N-14)
